# Measurements from ChEMBL document CHEMBL3098004, “Asymmetric synthesis and receptor activity of chiral simplified resiniferatoxin (sRTX) analogues as transient receptor potential vanilloid 1 (TRPV1) ligands” (Bioorg Med Chem Lett, 2014).
# Assays:
# Format in all cases: cell-based
# [1] = target: T1, Transient receptor potential cation channel subfamily V member 1 (Homo sapiens, UniProt Q8NER1); assay: Displacement of [3H]RTX from human TRPV1 expressed in CHO cells after 60 mins by liquid scintillation counting analysis
# T1 sequence (Q8NER1 whole entry): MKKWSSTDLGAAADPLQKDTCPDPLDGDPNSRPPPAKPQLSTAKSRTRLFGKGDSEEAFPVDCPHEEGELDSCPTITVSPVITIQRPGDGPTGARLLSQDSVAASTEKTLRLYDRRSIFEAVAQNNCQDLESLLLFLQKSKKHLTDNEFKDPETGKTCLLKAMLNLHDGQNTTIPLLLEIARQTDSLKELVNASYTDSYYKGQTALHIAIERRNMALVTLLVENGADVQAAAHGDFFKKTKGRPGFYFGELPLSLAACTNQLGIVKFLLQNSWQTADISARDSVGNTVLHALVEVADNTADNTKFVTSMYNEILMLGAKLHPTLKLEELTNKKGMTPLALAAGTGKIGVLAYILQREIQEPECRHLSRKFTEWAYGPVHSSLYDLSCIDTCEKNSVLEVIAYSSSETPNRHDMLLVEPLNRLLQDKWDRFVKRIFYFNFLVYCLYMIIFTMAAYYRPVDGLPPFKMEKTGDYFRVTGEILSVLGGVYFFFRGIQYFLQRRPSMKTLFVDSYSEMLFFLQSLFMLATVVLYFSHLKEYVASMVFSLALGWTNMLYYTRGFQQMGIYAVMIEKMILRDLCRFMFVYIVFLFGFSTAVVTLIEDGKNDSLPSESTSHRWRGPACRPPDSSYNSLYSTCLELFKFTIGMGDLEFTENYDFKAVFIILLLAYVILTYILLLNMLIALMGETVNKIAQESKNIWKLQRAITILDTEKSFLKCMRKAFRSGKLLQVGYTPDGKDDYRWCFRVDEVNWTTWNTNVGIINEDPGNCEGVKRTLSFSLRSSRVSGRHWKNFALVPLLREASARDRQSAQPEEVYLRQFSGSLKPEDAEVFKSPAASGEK
# [2] = target: T1, Transient receptor potential cation channel subfamily V member 1; assay: Antagonist activity at human TRPV1 expressed in CHO cells assessed as inhibition of RTX-induced 45Ca2+ uptake after 20 mins by liquid scintillation counting analysis
# [3] = target: T1, Transient receptor potential cation channel subfamily V member 1; assay: Agonist activity at human TRPV1 expressed in CHO cells assessed as 45Ca2+ uptake after 20 mins by liquid scintillation counting analysis
Compound,Ki [1],Ki ([2]; cho),EC50 ([3]; read-out: EC50),Ki ([2]; read-out: Ki),EC50 ([3]; cho)
COc1cc(CNC(=S)NCC(COC(=O)C(C)(C)C)Cc2ccc(C(C)(C)C)cc2)ccc1O (racemic),6.1 nM,Not Active,1.34 nM,,
CC(C)(C)C(=O)OC[C@@H](CNC(=S)NCc1ccc(NS(C)(=O)=O)c(F)c1)Cc1ccc(C(C)(C)C)cc1,17.2 nM,,,94 nM,Not Active
CC(C)(C)C(=O)OC[C@H](CNC(=S)NCc1ccc(NS(C)(=O)=O)c(F)c1)Cc1ccc(C(C)(C)C)cc1,63 nM,,,161 nM,Not Active
COc1cc(CNC(=S)NC[C@@H](COC(=O)C(C)(C)C)Cc2ccc(C(C)(C)C)cc2)ccc1O,6.58 nM,Not Active,9.55 nM,,
CC(C)(C)C(=O)OCC(CNC(=S)NCc1ccc(NS(C)(=O)=O)c(F)c1)Cc1ccc(C(C)(C)C)cc1 (racemic),23 nM,,,122 nM,Not Active
C=C(C)[C@]12C[C@@H](C)[C@@]34O[C@](Cc5ccccc5)(O[C@@H]1[C@@H]3C=C(COC(=O)Cc1cc(I)c(O)c(OC)c1)C[C@]1(O)C(=O)C(C)=C[C@@H]41)O2 [IODORESINIFERATOXIN],,,,,Not Active
COc1cc(CNC(=S)NC[C@H](COC(=O)C(C)(C)C)Cc2ccc(C(C)(C)C)cc2)ccc1O,3.06 nM,Not Active,0.99 nM,,
C=C(C)[C@]12C[C@@H](C)[C@@]34O[C@](Cc5ccccc5)(O[C@@H]1[C@@H]3C=C(COC(=O)Cc1ccc(O)c(OC)c1)C[C@]1(O)C(=O)C(C)=C[C@@H]41)O2 [RESINIFERATOXIN],,Not Active,,,
